# Structures can show the parent of a compound that is named as a salt.
# Legend:
# hA2A receptor = hA2A receptor (Homo sapiens (Human), UniProt P29274); test: A2A FRET-based binding assay; details: HEK GFP-A2A stable cell line, dyed CGS15943-derived probe
# Procedure: Assay protocol: Compounds were evaluated on an in-vitro binding assay developed based on the technology described in the patent WO 98/55873. This assay was developed from hA2A receptor that was fused at its amino terminal domain to Green Fluorescent Protein (GFP) and stably expressed in HEK cells. The probe used is a dyed ligand derived from the non-selective CGS15943. For the FRET-binding experiment, HEK GFP-A2A stable cell line was seeded onto poly-D-lysine precoated black-walled 96-well plates in normal growth media (0.7 10^5 cells per well). After 24 hours of culture at 37° C., the cell media was removed and cells were washed. The tested compounds were applied on cells by the FLIPR^TETRA® (Molecular Devices®) and incubated for 10 minutes prior to addition of the dyed probe. When a drug interacts with the receptor, the FRET signal measured by the variation of GFP fluorescence at 510 nm is disrupted. The time curves of ligand binding were recorded during 1000 seconds. (excitation Light Emitting Diode 470-495 nm, emission 510+/−10 nm). The percentage of inhibition allows the evaluation of the inhibitory activity of compounds in comparison to the antagonist A2A reference CGS15943. The dose-inhibition curves were fitted with variable slope, using GraphPad® Prism software, in order to determine […] and Ki values. The dose-inhibition experiments were all performed in duplicate, three times independently.
# human A2A receptor = human A2A receptor (Homo sapiens, UniProt P29274); test: A2A-antagonist Ca++ functional assay (CGS21680 at EC80); type: cell-based; details: HEK cells expressing GFP-hA2A and Gα15, inhibition of CGS21680 (EC80)-induced Ca2+ increase
# Excerpt: Assay protocol: HEK cells stably expressing the human A2A receptor fused at its amino terminal domain to GFP, and cultured in Modified Eagle's Medium supplemented with 10% FCS, were transiently transfected by electroporation with plasmid DNA encoding the promiscuous G protein Gα15 in order to deviate the natural coupling of the receptor from AMPc production to calcium (Ca^2+) release pathway (Brabet et al., Neuropharmacology 37:1043-1051, 1998). Receptor activity was detected by changes in intracellular Ca^2+, measured using the fluorescent Ca^2+ sensitive dye, Fluo4AM (Molecular Probes®).
# Cells were plated after transfection onto polyornithine coated, clear bottom, black-walled, 96-well plates and cultured for 24 hours. The day of the test, cells were washed with freshly prepared buffer B (HBSS 1×, Hepes 20 mM, MgSO4.7H2O 1 mM, Na2CO3 3.3 mM, CaCl2-2H2O 1.3 mM, 0.5% BSA, Probenecid 2.5 mM) and loaded at 37° C. in 5% CO2 for 1.5 hours with buffer B containing 1 μM Fluo4AM and 0.1 mg/mL Pluronic Acid. Afterwards cells were washed twice with buffer B and 50 μL of this buffer were added to each well. The tested compounds were incubated […] before addition of CGS21680 (used as reference agonist) at a concentration leading to 80% of its maximal activity (EC80). Afterwards, the intracellular Ca^2+ measurements were performed on a 60s kinetic by detection of the fluorescence intensity (excitation 485 nm, emission 525 nm) using the fluorescence microplate reader FlexStation® (Molecular Devices®). All data reflect three independent experiments. Dose-response curves were fitted by using the sigmoidal dose-response (variable slope) analyze in GraphPad Prism® program (San Diego) and IC50 of antagonist compound was calculated. Dose-response experiments were all performed in triplicate, three times independently.
# Chain of hA2A receptor (P29274 whole entry, the tested form may be a part): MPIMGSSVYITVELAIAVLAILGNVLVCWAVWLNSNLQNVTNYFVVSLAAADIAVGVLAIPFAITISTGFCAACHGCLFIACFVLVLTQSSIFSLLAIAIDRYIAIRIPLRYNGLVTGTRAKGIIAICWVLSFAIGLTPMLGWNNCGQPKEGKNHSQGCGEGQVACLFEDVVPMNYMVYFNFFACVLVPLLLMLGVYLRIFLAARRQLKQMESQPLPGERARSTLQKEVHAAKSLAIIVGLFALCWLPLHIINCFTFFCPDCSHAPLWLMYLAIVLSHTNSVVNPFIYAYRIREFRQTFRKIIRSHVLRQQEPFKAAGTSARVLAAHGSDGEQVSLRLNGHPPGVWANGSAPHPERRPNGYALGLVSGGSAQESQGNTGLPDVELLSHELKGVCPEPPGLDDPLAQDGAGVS
melting point [°C],Ki (hA2A receptor) [µM],IC50 (human A2A receptor) [µM],SMILES
–,0.348 ± 0.095,–,"O=C(c1ccc2c(-c3cnc4ccc(F)cn34)c[nH]c2c1)N1CCCCCC1 [Example 134, 3-[6-(Azepan-1-ylcarbonyl)-1H-indol-3-yl]-6-fluoroimidazo[1,2-a]pyridine]"
> 250,–,–,CCc1ccc2ncc(-c3nn(C)c4cc(C(=O)N5CCCCCC5)ccc34)n2c1.Cl
> 250,–,–,Cl.Cn1nc(-c2cnc3ccccn23)c2ccc(C(=O)N3CCCCCC3)cc21
230 to 235,–,–,"COC[C@H]1CCCN1C(=O)c1ccc2c(-c3cnc4ccc(C#N)cn34)nn(C)c2c1.Cl (hydrate or solvate) [Example 101, 3-(1-Methyl-6-{[(2R)-2-(methoxymethyl)pyrrolidin-1-yl]carbonyl}-1H-indazol-3-yl)imidazo[1,2-a]pyridine-6-carbonitrile, chlorhydrate salt]"
128 to 130,–,–,"N#Cc1ccc2ncc(C(=O)c3ccc(C(=O)N4CCCCCC4)cc3F)n2c1 [Example 73, 3-[4-(Azepan-1-ylcarbonyl)-2-fluorobenzoyl]imidazo[1,2-a]pyridine-6-carbonitrile]"
> 250,–,–,Cc1ccc2ncc(-c3nn(C)c4cc(C(=O)N5CCCCCC5)ccc34)n2c1.Cl
> 250,–,–,Cl.Cn1nc(-c2cnc3ccc(C4CC4)cn23)c2ccc(C(=O)N3CCCCCC3)cc21
> 250,–,–,CN(C(=O)c1ccc2c(-c3cnc4ccc(F)cn34)nn(C)c2c1)c1ccccc1.Cl
159 to 165,–,–,COCCOCCn1nc(-c2cnc3ccc(F)cn23)c2ccc(C(=O)N3CCCCCC3)cc21.Cl
> 250,–,–,Cl.Cn1nc(-c2cnc3ccc(F)cn23)c2ccc(C(=O)N3CCCCC3)cc21 (hydrate or solvate)
241 to 249,–,–,"Cl.Cn1nc(-c2cnc3ccc(F)cn23)c2ccc(C(=O)N3CCCCCCC3)cc21 (hydrate or solvate) [Example 97, Azocan-1-yl-[3-(6-fluoro-imidazo[1,2-a]pyridin-3-yl)-1-methyl-1H-indazol-6-yl]-methanone, chlorhydrate salt]"
–,0.003 ± 0.0004,0.021 ± 0.008,"Cn1nc(-c2cnc3ccc(F)cn23)c2ccc(C(=O)N3CCCCCCC3)cc21 [Example 97, Azocan-1-yl-[3-(6-fluoro-imidazo[1,2-a]pyridin-3-yl)-1-methyl-1H-indazol-6-yl]-methanone, chlorhydrate salt]"
139 to 140,–,–,Cl.O=C(c1ccc2c(-c3cnc4ccc(F)cn34)nn(CCc3ccccc3)c2c1)N1CCCCCC1
–,0.459 ± 0.27,–,"CCN(C(=O)c1ccc(C(=O)c2cnc3ccc(Cl)nn23)cc1)C1CCCCC1 [Example 139, N-Cyclohexyl-N-ethyl-4-(6-chloroimidazo[1,2-b]pyridazin-3-ylcarbonyl)-benzamide]"
–,0.003,0.012 ± 0.004,"COC[C@H]1CCCN1C(=O)c1ccc2c(-c3cnc4ccc(C#N)cn34)nn(C)c2c1 [Example 101, 3-(1-Methyl-6-{[(2R)-2-(methoxymethyl)pyrrolidin-1-yl]carbonyl}-1H-indazol-3-yl)imidazo[1,2-a]pyridine-6-carbonitrile, chlorhydrate salt]"
141 to 145,0.188 ± 0.063,–,"CCN(C(=O)c1ccc(C(=O)c2cnc3ccccn23)cc1)c1ccccc1 [Example 56, N-Ethyl-4-(imidazo[1,2-a]pyridine-3-carbonyl)-N-phenyl-benzamide]"
–,0.034 ± 0.009,–,"CCN(C(=O)c1ccc(C(=O)c2cnc3ccc(F)cn23)cc1Cl)C1CCCCC1 [Example 24, 2-Chloro-N-cyclohexyl-N-ethyl-4-(6-fluoro-imidazo[1,2-a]pyridine-3-carbonyl)-benzamide]"
–,0.004 ± 0.001,0.015 ± 0.004,"Cn1nc(-c2cnc3ccc(F)cn23)c2ccc(C(=O)N3CCCCCC3)cc21 [Example 79, Azepan-1-yl-[3-(6-fluoro-imidazo[1,2-a]pyridin-3-yl)-1-methyl-1H-indazol-6-yl]-methanone]"
234 to 235,–,–,Cl.N#Cc1ccc2ncc(-c3noc4cc(C(=O)N5CCCCCC5)ccc34)n2c1
> 250,–,–,Cl.Cn1nc(-c2cnc3ccc(C#N)cn23)c2ccc(C(=O)N3CCCCC3)cc21 (hydrate or solvate)

# More lines, now with the values behind:
SMILES,melting point [°C],Ki (hA2A receptor) [µM],IC50 (human A2A receptor) [µM]
CCN(C(=O)c1ccc2c(-c3cnc4ccc(F)cn34)nn(C)c2c1)C(C)C.Cl,> 250,–,–
"Nc1nc(-c2cnc3ccc(F)cn23)c2ccc(C(=O)N3CCCCCC3)cc2n1 [Example 136, 2-Amino-7-(azepan-1-ylcarbonyl)-4-(6-fluoroimidazo[1,2-a]pyridin-3-yl)quinazoline, HCl salt]",–,0.084 ± 0.011,–
"CN1CCN(C(=O)n2nc(-c3cnc4ccc(F)cn34)c3ccc(C(=O)N4CCCCCC4)cc32)CC1.Cl [Example 111, Azepan-1-yl-[3-(6-fluoro-imidazo[1,2-a]pyridin-3-yl)-1-[(4-methylpiperazin-1-yl)carbonyl]-1H-indazol-6-yl]-methanone, HCl salt]",193 to 199,0.291 ± 0.03,–
CCN(C(=O)c1ccc2c(-c3cnc4ccc(F)cn34)noc2c1)C(C)C.Cl,219 to 225,–,–
"Cl.Cn1nc(-c2cnc3ccc(C(F)(F)F)cn23)c2ccc(C(=O)N3CCCCCC3)cc21 [Example 85, [6-(Azepan-1-ylcarbonyl)]-1-methyl-3[6-(trifluoromethyl)-imidazo[1,2-a]pyridin-3-yl]-1H-indazole, HCl salt]",202 to 204,0.177 ± 0.005,–
Cl.Cn1nc(-c2cnc3ccc(C#N)cn23)c2ccc(C(=O)N3CCCCCC3)cc21,> 250,–,–
"Cl.O=C(c1ccc2c(-c3cnc4ccc(F)cn34)nn(Cc3ccccc3)c2c1)N1CCCCCC1 [Example 107, Azepan-1-yl-[1-benzyl-3-(6-fluoro-imidazo[1,2-a]pyridin-3-yl)-1H-indazol-6-yl]-methanone, HCl salt]",134 to 135,0.034 ± 0.005,–
Cl.Cn1nc(-c2cnc3ccc(F)cn23)c2ccc(C(=O)N3CCCCCCCC3)cc21 (hydrate or solvate),240 to 245,–,–
Cl.O=C(c1ccc2c(-c3cnc4ccc(F)cn34)noc2c1)N1CCCCC1,203 to 205,–,–
Cl.O=C(c1ccc2c(-c3cnc4ccc(F)cn34)nn(CCN3CCOCC3)c2c1)N1CCCCCC1,230 to 245,–,–
"CN(C(=O)c1ccc(C(=O)c2cnc3ccc(F)cn23)cc1)c1ccccc1 [Example 50, 4-(6-Fluoro-imidazo[1,2-a]pyridine-3-carbonyl)-N-methyl-N-phenyl-benzamide]",131 to 135,–,–
Cl.Cn1nc(-c2cnc3ccc(F)cn23)c2ccc(C(=O)N(CC3CC3)C3CCCCC3)cc21,235 to 245,–,–
"N#Cc1ccc2ncc(-c3noc4cc(C(=O)N5CCOCC5)ccc34)n2c1 [Example 125, 3-[6-(Morpholin-4-ylcarbonyl)-1,2-benzisoxazol-3-yl]imidazo[1,2-a]pyridine-6-carbonitrile, HCl salt]",–,0.147 ± 0.054,–
"CCN(C(=O)c1ccc(C(=O)c2cnc3ccccn23)nc1)C1CCCCC1 [Example 23, N-Cyclohexyl-N-ethyl-6-(imidazo[1,2-a]pyridine-3-carbonyl)-nicotinamide]",–,0.264 ± 0.141,0.403 ± 0.163
Cl.Cn1nc(-c2cnc3ccc(F)cn23)c2ccc(C(=O)N3CCCC4CCCCC43)cc21 (stereo not drawn),248 to 249,–,–
"CCN(C(=O)c1ccc(C(=O)c2cnc3ccc(Br)cn23)cc1)C1CCCCC1 [Example 10, 4-(6-Bromo-imidazo[1,2-a]pyridine-3-carbonyl)-N-cyclohexyl-N-ethyl-benzamide]",–,0.108 ± 0.074,0.891 ± 0.571
"CCN(C(=O)c1ccc(C(=O)c2cnc3ccc(C#N)cn23)cc1)C1CCCCC1 [Example 7, 4-(6-Cyano-imidazo[1,2-a]pyridine-3-carbonyl)-N-cyclohexyl-N-ethyl-benzamide]",–,0.171 ± 0.104,–
"O=C(c1ccc(C(=O)N(C2CCCCC2)C2CCCCC2)cc1)c1cnc2ccccn12 [Example 48, N,N-Dicyclohexyl-4-(imidazo[1,2-a]pyridine-3-carbonyl)-benzamide]",–,0.138 ± 0.115,0.945 ± 0.419
